Entries after “also recorded” stand apart in the source; their conditions may differ. Read-outs that look alike come from different tables or passages of the source.
Legend:
Human PDE10A2 [1] = molecular target: T1, Human PDE10A2 (Homo sapiens (Human), UniProt Q9Y233); test: Cell based human PDE10A activity assay - cAMP HTRF assay in HEK 293 rhPDE10A2 cell line
Procedure: Semi log compound dilutions starting at a final concentration of 10 μM were dispensed into a white 384 well plate, alongside DMSO and an Inhibited control using the Tecan D300e digital dispenser. HEK 293 cells overexpressing recombinant human PDE10A2 were seeded on top of the compounds at 2500 cells/well in a volume 5 μL/well. The plate was incubated at room temperature for 60 minutes. To induce endogenous cAMP, 5 μL/well of Forskolin at a final assay concentration of 10 μM was added to the plate. The plate was incubated at room temperature for a further 45 minutes. cAMP HTRF detection reagents were added, and the plate was incubated for 60 minutes at room temperature. […] Data was analysed using a 4-parameter fit.

Human PDE10A2 [2] = molecular target: T1, Human PDE10A2; test: Biochemical human PDE10A activity assay - PDE10A2 Phosphate Sensor Assay; settings: cGMP 3 μM substrate, PDE10A2 0.25 nM
Procedure: Biochemical Human PDE10A Activity Assay—PDE10A2 Phosphate Sensor Assay
Semi Log compound dilutions starting at a final concentration of 50 μM were dispensed into a black 384 well plate alongside, DMSO and an Inhibited control using the Echo Acoustic dispenser. […] Data was analysed using a 4-parameter fit.

[3] = system: inflamed colonic mucosa from ulcerative colitis patients; test: Ex-vivo colon biopsy culture from ulcerative colitis patients, cytokine release (Protocol 1); format: cell-based, human
Procedure: The effect of selective PDE10A inhibition was tested on inflamed colonic mucosa from ulcerative colitis patients taken during routine endoscopy (Protocol 1 detailed below). These samples retain a disease phenotype in ex-vivo culture, secrete high basal levels of inflammatory cytokines, and represent a highly relevant and translational disease model. The effect of the PDE10A inhibitors on levels of the inflammatory cytokines IL-6 and IL-8 released from these tissue samples were measured. Both IL-6 and IL-8 are key regulators in ulcerative colitis pathology and their levels correlate with disease severity (Waldner M J et al. Master regulator of intestinal disease: IL-6 in chronic inflammation and cancer development. Semin Immunol. 26(1), 75-9 (2014); Bernardo D et al. IL-6 promotes immune responses in human ulcerative colitis and induces a skin-homing phenotype in the dendritic cells and T-cells they stimulate. Eur J Immunol. 42(5), 1337-53 (2012); Pearl D S, Cytokine mucosal expression in ulcerative colitis, the relationship between cytokine release and disease activity. J Crohns Colitis. 7(6), 481-9 (2013)).
These colon biopsies retain an inflammatory phenotype and secrete high levels of inflammatory cytokines in ex-vivo culture.
(§1) Biopsy tissue was obtained from inflamed colonic mucosa from ulcerative colitis or Crohn's disease patients during routine endoscopy. Ex-vivo biopsy cultures for the analysis of inflammatory cytokine biomarkers were run as previously described (Vossenkämper A. et al. A CD3- specific antibody reduces cytokine production and alters phosphoprotein profiles in intestinal tissues from patients with inflammatory bowel disease. Gastroenterology, 147, 172-183 (2014)). Biopsies were incubated in organ culture for 24 h with the addition of positive control compounds, or specific PDE10A inhibitors. Supernatants collected at the end of the experiment were snap-frozen and stored at −70° C. For the measurement of cytokines, the frozen culture supernatants were thawed and analysed for levels of the inflammatory cytokines using Luminex cytokine assay kits (R&D Systems) and an R&D Systems MAGPIX® analyser. Mean values ±SDs were calculated for the levels of spontaneous cytokine production measured in biopsy culture supernatants from each treatment group.

[4] = Determination of CNS penetration in vivo (brain to plasma partitioning, Kpuu); set-up: species or system Male Sprague Dawley Rats; settings: male, Sprague-Dawley, brain / plasma (unbound); rat, IV, 1 mg/kg, 10-30 min post dose
other PDE family members = settings: read-out: IC50s for other PDE family members; literature value; cited from earlier work
[5] = system: inflamed colonic mucosa from pharmacotherapy treatment-refractory ulcerative colitis patients; test: Ex-vivo culture of inflamed colon tissue from surgical resection of treatment-refractory UC patients, TNFα release (Protocol 2); format: cell-based, human; settings: 1 μM; UC donors 4 and 5; with SEB; about 18 hours; vs DMSO vehicle
[6] = system: inflamed colonic mucosa from Crohn's Disease patients; test: Ex-vivo colon biopsy culture from Crohn's disease patients, cytokine release (Protocol 1); format: cell-based, human; settings: 0.1 uM; 2 independent CD patient biopsies; vs DMSO vehicle; listed as PF-2545920
Procedure: In addition, we tested the effect of selective PDE10A inhibition using 0.1 uM PF-2545920 on inflamed colonic mucosa from Crohn's Disease patients taken during routine endoscopy (Protocol 1).
as §1

[7] = system: isolated human neutrophil; test: In vitro assay of IL-8 neutrophil activation; format: cell-based
[8] = 100 nM, UC donor 3, vs vehicle control
[9] = UC donors 1 and 2, PF-02545920 0.1 μM and 1 μM, TAK-063 1 uM, 24 h, vs DMSO vehicle
[10] = Forskolin 10 μM, read-out: cAMP HTRF Assay in HEK 293 rhPDE10A2 cell line (pIC50) (converted)

T1 sequence (Q9Y233 267-1055): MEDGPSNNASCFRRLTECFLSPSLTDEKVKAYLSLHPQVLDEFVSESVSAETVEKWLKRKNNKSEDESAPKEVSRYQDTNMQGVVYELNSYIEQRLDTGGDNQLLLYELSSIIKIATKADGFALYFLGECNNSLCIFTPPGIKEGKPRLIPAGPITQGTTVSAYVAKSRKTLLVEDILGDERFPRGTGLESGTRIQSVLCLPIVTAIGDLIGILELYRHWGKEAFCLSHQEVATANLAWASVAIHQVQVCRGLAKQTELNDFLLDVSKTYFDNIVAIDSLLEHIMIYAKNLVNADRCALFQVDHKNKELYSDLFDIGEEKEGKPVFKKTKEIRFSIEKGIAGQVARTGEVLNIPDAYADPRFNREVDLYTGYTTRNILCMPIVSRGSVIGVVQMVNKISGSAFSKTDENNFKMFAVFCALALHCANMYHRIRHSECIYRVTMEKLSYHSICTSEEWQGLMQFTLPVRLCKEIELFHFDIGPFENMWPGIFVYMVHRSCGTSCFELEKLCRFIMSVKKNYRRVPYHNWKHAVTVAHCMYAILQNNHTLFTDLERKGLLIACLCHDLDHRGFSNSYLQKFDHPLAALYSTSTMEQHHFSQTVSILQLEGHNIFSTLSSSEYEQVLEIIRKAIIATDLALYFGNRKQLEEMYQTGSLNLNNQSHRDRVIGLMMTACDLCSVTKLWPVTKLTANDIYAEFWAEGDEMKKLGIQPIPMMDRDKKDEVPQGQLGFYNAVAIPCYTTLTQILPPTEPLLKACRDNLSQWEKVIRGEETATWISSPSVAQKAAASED

| Compound | IC50 (Human PDE10A2 [1]) [nM] | PDE10A2 Phosphate Sensor Enzyme Assay (pIC50) (Human PDE10A2 [2]) | secreted levels of IL-6 [3, 8] | secreted levels of IL-8 [3, 8] | Kp uu [4] | further results |
| --- | --- | --- | --- | --- | --- | --- |
| Cn1cc(-c2ccncc2)c(-c2ccc(OCc3nc4ccccc4cc3C(=O)N=S(C)(C)=O)cc2)n1 [Example 10, N-[Dimethyl(oxo)-λ6-sulfanylidene]-2-[[4-[1-methyl-4-(4-pyridyl)pyrazol-3-yl]phenoxy]methyl]quinoline-3-carboxamide] | 1.1 | 10 | significantly reduce | significantly reduce | 0.02 |  |
| Cn1cc(-c2ccncc2)c(-c2ccc(OCc3cc(C(=O)N=S(C)(C)=O)c4ccccc4n3)cc2)n1 [Example 11, N-[Dimethyl(oxo)-λ6-sulfanylidene]-2-[[4-[1-methyl-4-(4-pyridyl)pyrazol-3-yl]phenoxy]methyl]quinoline-4-carboxamide] | 1 | 10.1 | significantly reduce | significantly reduce | 0.02 |  |
| Cn1cc(-c2ccncc2)c(-c2ccc(OCc3nc4cccnc4cc3C(=O)N=S(C)(C)=O)cc2)n1 [Example 19, N-[Dimethyl(oxo)-λ6-sulfanylidene]-2-[[4-[1-methyl-4-(4-pyridyl)pyrazol-3-yl]phenoxy]methyl]-1,5-naphthyridine-3-carboxamide] | 5.37 | 9.43 | significantly reduce | significantly reduce | 0.05 |  |
| COc1cn(-c2ccc(-n3cccn3)cc2F)nc(-c2ccnn2-c2ccccc2)c1=O [TAK-063, 1-[2-fluoro-4-(1H-pyrazol-1-yl)phenyl]-5-methoxy-3-(1-phenyl-1H-pyrazol-5-yl)pyridazin-4(1H)-one, reference compound] |  |  |  |  |  | IC50 (other PDE family members): > 5000 nM; secreted levels of IL-6 [3, 9]: inhibiting; also recorded: significantly reduced; secreted levels of IL-8 [3, 9]: inhibiting; also recorded: significantly reduced |
| Cn1cc(-c2ccncc2)c(-c2ccc(OCc3nc4ccccn4c3C(=O)N=S(C)(C)=O)cc2)n1 [Example 20, N-[Dimethyl(oxo)-λ6-sulfanylidene]-2-[[4-[1-methyl-4-(4-pyridyl)pyrazol-3-yl]phenoxy]methyl]imidazo[1,2-a]pyridine-3-carboxamide] | 6.76 | 9.76 | significantly reduce | significantly reduce | 0.11 |  |
| Cn1cc(-c2ccncc2)c(-c2ccc(OCc3ccc4ccccc4n3)cc2)n1 [PF-02545920] |  |  |  |  |  | secreted levels of TNFα [5]: inhibiting; also recorded: significantly reduced; secreted levels of IL-6 [6]: inhibits; also recorded: significantly reduced; secreted levels of IL-8 [6]: inhibits; also recorded: significantly reduced; IL-8 induced neutrophil activation [7]: dose dependently inhibited; IC50 (other PDE family members): > 1000 nM; secreted levels of IL-6 [3, 9]: inhibiting; also recorded: significantly reduced; secreted levels of IL-8 [3, 9]: inhibiting; also recorded: significantly reduced |
| Cn1cc(-c2ccncc2)c(-c2ccc(OCc3cc(C(=O)O)c4ccccc4n3)cc2)n1 [Example 4, Ammonium 2-[[4-[1-methyl-4-(4-pyridyl)pyrazol-3-yl]phenoxy]methyl]quinoline-4-carboxylate] | 0.813 | 10.1 | significantly reduce | significantly reduce | 0.32 |  |
| O=C(O)Cn1cc(-c2ccncc2)c(-c2ccc(OCc3ccc4ccccc4n3)cc2)n1 [Example 5, 2-[4-(4-Pyridyl)-3-[4-(2-quinolylmethoxy)phenyl]pyrazol-1-yl]acetic acid] | 75.9 | 9.41 |  |  | 0.02 |  |
| CN(C(=O)c1cc2ccccc2nc1COc1ccc(-c2nn(C)cc2-c2ccncc2)cc1)S(C)(=O)=O [Example 15, N-Methyl-2-[[4-[1-methyl-4-(4-pyridyl)pyrazol-3-yl]phenoxy]methyl]-N-methylsulfonyl-quinoline-3-carboxamide] | 10.7 | 9.22 |  |  | 0.06 |  |
| Cn1cc(-c2ccncc2)c(-c2ccc(OCc3nc4ccccc4cc3C(=O)NS(C)(=O)=O)cc2)n1 [Example 9, 2-[[4-[1-Methyl-4-(4-pyridyl)pyrazol-3-yl]phenoxy]methyl]-N-methylsulfonyl-quinoline-3-carboxamide] | 1.66 | 10.1 | significantly reduce | significantly reduce | 0.37 |  |
| Cn1cc(-c2ccncc2)c(-c2ccc(OCc3nc4ccccc4cc3C(=O)O)cc2)n1 [Example 3, 2-[[4-[1-Methyl-4-(4-pyridyl)pyrazol-3-yl]phenoxy]methyl]quinoline-3-carboxylic acid] | 2.75 | 10.1 |  |  | 0.56 |  |
| Cn1cc(-c2ccncc2)c(-c2ccc(OCc3nc4ccccc4nc3C(=O)N=S(C)(C)=O)cc2)n1 [Example 18, N-[Dimethyl(oxo)-λ6-sulfanylidene]-3-[[4-[1-methyl-4-(4-pyridyl)pyrazol-3-yl]phenoxy]methyl]quinoxaline-2-carboxamide] | 102 | 9.34 |  |  | 0.03 |  |
| Cn1cc(-c2ccncc2)c(-c2ccc(OCc3nc4cc(F)ccc4cc3C(=O)N=S(C)(C)=O)cc2)n1 [Example 21, N-[Dimethyl(oxo)-λ6-sulfanylidene]-7-fluoro-2-[[4-[1-methyl-4-(4-pyridyl)pyrazol-3-yl]phenoxy]methyl]quinoline-3-carboxamide] |  | 8.32 |  |  |  | IC50 (Human PDE10A2 [1]; [10]): 550 nM |
| Cn1cc(-c2ccncc2)c(-c2ccc(OCc3nc(N4CCNCC4)c4ccccc4n3)cc2)n1 [Example 40, 2-[[4-[1-Methyl-4-(4-pyridyl)pyrazol-3-yl]phenoxy]methyl]-4-piperazin-1-yl-quinazoline] |  | 8.98 |  |  |  | IC50 (Human PDE10A2 [1]; [10]): 4.57 nM |
| CS(C)(=O)=NC(=O)c1cc(COc2ccc(-c3n[nH]cc3-c3ccncc3)cc2)nc2ccccc12 [Example 12, N-[Dimethyl(oxo)-λ6-sulfanylidene]-2-[[4-[4-(4-pyridyl)-1H-pyrazol-3-yl]phenoxy]methyl]quinoline-4-carboxamide] |  | 9.84 |  |  |  | IC50 (Human PDE10A2 [1]; [10]): 5.01 nM |
| Cn1ncc(-c2ccncc2)c1-c1ccc(OCc2cc(C(=O)O)c3ccccc3n2)cc1 [Example 1, 2-[[4-[2-Methyl-4-(4-pyridyl)pyrazol-3-yl]phenoxy]methyl]quinoline-4-carboxylic acid] |  | 9.43 |  |  |  | IC50 (Human PDE10A2 [1]; [10]): 1.95 nM |
| Cn1cc(-c2ccncc2)c(-c2ccc(OCc3nc(C(=O)N=S(C)(C)=O)c4ccccc4n3)cc2)n1 [Example 17, N-[Dimethyl(oxo)-λ6-sulfanylidene]-2-[[4-[1-methyl-4-(4-pyridyl)pyrazol-3-yl]phenoxy]methyl]quinazoline-4-carboxamide] | 3.02 | 9.92 | significantly reduce | significantly reduce | 0.06 |  |

Source: patent US20240336591A1, “ORGANIC PYRIDINE-PYRAZOLE COMPOUNDS AND THEIR USES” (priority 2021, published 2024)
